Reference: patent US20260144769A1, “4-PHENYLBUTYRATE RESTORED GABA UPTAKE AND REDUCED SEIZURES IN SLC6A1 VARIANT-MEDIATED DISORDERS” (Vanderbilt University, priority 2022, published 2026)

Key:
GAT-1 [1] = assay: GAT-1 protein expression in brain regions of SLC6A1^+/S295L heterozygous mice; format: in vivo, mouse; details: S295L het; cerebellum; PBA 100 mg/kg, 7 days
Text: (§1) FIGS. 8C-D show integrated density values (IDVs) for total GAT-1 from wild-type and het KI were normalized to the Na^+/K^+ ATPase or anti-glyceraldehyde-3-phosphate dehydrogenase (GAPDH) loading control (LC) in each specific brain region and plotted. N=4 from 4 pairs of mice. […] The vehicle treated in each brain region was taken as 1. N=4 from 4 pairs of mice for FIG. 8C, FIG. 8D, FIG. 8G and FIG. 8H, Values were expressed as mean±S.E.M. One way ANOVA or unpaired t test.
(§2) The working solution was stored at 4° C.
(§3) Data were expressed as mean±SEM. Proteins were quantified by Odyssey software and data were normalized to loading controls and then to the wildtype subunit protein, which was arbitrarily taken as 1 in each experiment. Fluorescence intensities from confocal microscopy experiments were determined using MetaMorph imaging software, and the measurements were carried out in ImageJ. For statistical significance, one-way or two-way analysis of variance (ANOVA) with post hoc Dunnett or Newman-Keuls test were used. In some cases, unpaired t-test or one sample t-test was performed (GraphPad Prism, La Jolla, CA), and statistical significance was taken as p<0.05.

GAT-1 [2] = assay: GAT-1 protein expression in brain regions of SLC6A1^+/A288V heterozygous mice; format: in vivo, mouse; details: A288V het; cerebellum; PBA 100 mg/kg, 7 days
Text: as §1, §2, §3

[3] = biological target: T1, wildtype GAT-1 + GAT-1(E16X) (Rattus norvegicus, UniProt P23978); assay: 3H GABA uptake, HEK293T, mixture of wildtype and mutant cDNAs ("heterozygous"); format: cell-based; details: wildtype:E16X cDNAs 1:1; PBA 2 mM, 24 hrs
T1 construct: expressed in transfected cells; host or cells: HEK293T cells
Protocol: GABA uptake activity was measured by the high-throughput 3H radio-labeling GABA uptake on a liquid scintillator with QuantaSmart. […] HEK293T cells were transfected with the wildtype or the mutant GAT-1^YFP cDNAs alone for 48 hr. […] HEK293T cells were transfected with the wildtype GAT-1^YFP alone or in mixture of the wildtype or the mutant cDNAs for 48 hr. In the mixed condition, the ratio of the wildtype GAT-1 with pcDNA or the mutant cDNAs are 1:1 with the total cDNA amount of 0.5 μg. […] Both wt and the mutant were normalized to its own DMSO treated conditions. 966 stands for the wildtype treated with CI-966 (50 μM) while 711 stands for NNC-711 (35 μM). (N=4-7 different transfections. In FIG. 4A and FIG. 4B, *P<0.05, **P<0.01, ***p<0.001 vs. wt 0. In FIG. C and FIG. 4D, *P<0.05, **P<0.01, ***p<0.001 vs. its own DMSO treated. In FIG. 4C, ns stands for no significance. One-way analysis of variance (ANOVA) and Newman-Keuls test. Values were expressed as mean±S.E.M.
The plasmid cDNA encoding enhanced yellow fluorescent protein (EYFP)-tagged rat GAT-1 has been previously described. […]
Briefly, cells were cultured in […] dishes for 3 days before the GABA uptake experiment in DMEM with 10% fetal bovine serum and 1% penicillin/streptomycin. […] Glacial acetic acid was added, and lysates were then determined on a liquid scintillator with QuantaSmart. […]

SLC6A1^+/S295L mice = assay: Video-monitoring synchronized EEG recordings, seizure activity; format: in vivo, mouse
Protocol: as §2
The surgery to implant the EEG head mount and the video-monitoring synchronized EEG recordings were conducted as described by Kristensen et al., Pharmcol. Rev. 63 (3): 585-640 (2011) and Cai et al., Exp. Neurol. 3:112973 (2019).
For recordings, the sampling rate was set at 400 Hz with a pre-amplifier gain of […]. […] EEG recordings were scored blindly by a skilled scorer using the Sirenia Seizure Pro software. A power analysis was performed using the theta frequency band of 5-7 Hz. The 5-7 Hz SWDs band was chosen because it is the mouse correlate of 2-4 Hz SWDs in humans. An average power was calculated using baseline recordings and applied to seizure analysis for treatment recordings. Seizures identified by the software were confirmed using video recordings of the period. The Racine scale was used for seizure identification (Stage 1: mouth/facial movements; Stage 2: head nodding; Stage 3: forelimb clonus; Stage 4: rearing; Stage 5: rearing and falling). The identified SWDs were then confirmed with video monitoring and compared across treated and non-treated recordings. The total seizure events over 48 hrs of EEG recordings were reported.
First, ˜2-month-old mice were implanted with EEG head mounts. After 5-7 days recovery, the mice were treated with a normal saline vehicle for 7 days, and then subject to video monitored EEG recording for 48 hrs. […]

GABA uptake normalized to its own DMSO treated condition [3]: 1.149±0.025
Structure (SMILES): O=C(O)CCCc1ccccc1 [PBA, 4-phenylbutyric acid]
GAT-1 expression vs. same brain region of vehicle treated mice taken as 1 (GAT-1 [1]): 1.03±0.03 | GAT-1 expression vs. same brain region of vehicle treated mice taken as 1 (GAT-1 [2]): 1.045±0.028 | total number of 5-7 Hz SWDs over 48 hrs EEG recordings (SLC6A1^+/S295L mice; PBA 100 mg/kg, ip, single dose daily, 7 days (vehicle 127.7±34.08)): 33.3±13.02 | reduction of seizure burden (SLC6A1^+/S295L mice; PBA treatment alone, 1 week): ~76%
